Results from ChEMBL document CHEMBL1201862, “PubChem BioAssay data set” (2004).
Calls of active or inactive are those of the source.

Tests used:
Caspase-3 = molecular target: T1, Caspase-3 (Homo sapiens, UniProt P42574); format: functional;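 note: Dose-response selectivity test against caspase-3 for candidate inhibitors of sentrin-specific proteases (SENPs)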
T1 sequence (P42574 whole entry): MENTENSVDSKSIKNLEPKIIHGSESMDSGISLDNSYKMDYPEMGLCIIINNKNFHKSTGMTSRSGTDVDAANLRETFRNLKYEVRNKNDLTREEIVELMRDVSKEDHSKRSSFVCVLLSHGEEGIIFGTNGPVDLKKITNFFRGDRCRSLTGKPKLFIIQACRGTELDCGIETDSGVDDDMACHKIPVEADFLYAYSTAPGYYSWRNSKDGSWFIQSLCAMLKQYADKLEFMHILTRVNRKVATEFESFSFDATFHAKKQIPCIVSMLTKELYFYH

[1] = molecular target: T2, Sentrin-specific protease 7 (Homo sapiens, UniProt Q9BQF6); format: functional;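 note: Luminescence-based dose-response confirmation of ultra-high-throughput screening hits, measuring inhibition of SENP7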
T2 sequence (Q9BQF6 whole entry): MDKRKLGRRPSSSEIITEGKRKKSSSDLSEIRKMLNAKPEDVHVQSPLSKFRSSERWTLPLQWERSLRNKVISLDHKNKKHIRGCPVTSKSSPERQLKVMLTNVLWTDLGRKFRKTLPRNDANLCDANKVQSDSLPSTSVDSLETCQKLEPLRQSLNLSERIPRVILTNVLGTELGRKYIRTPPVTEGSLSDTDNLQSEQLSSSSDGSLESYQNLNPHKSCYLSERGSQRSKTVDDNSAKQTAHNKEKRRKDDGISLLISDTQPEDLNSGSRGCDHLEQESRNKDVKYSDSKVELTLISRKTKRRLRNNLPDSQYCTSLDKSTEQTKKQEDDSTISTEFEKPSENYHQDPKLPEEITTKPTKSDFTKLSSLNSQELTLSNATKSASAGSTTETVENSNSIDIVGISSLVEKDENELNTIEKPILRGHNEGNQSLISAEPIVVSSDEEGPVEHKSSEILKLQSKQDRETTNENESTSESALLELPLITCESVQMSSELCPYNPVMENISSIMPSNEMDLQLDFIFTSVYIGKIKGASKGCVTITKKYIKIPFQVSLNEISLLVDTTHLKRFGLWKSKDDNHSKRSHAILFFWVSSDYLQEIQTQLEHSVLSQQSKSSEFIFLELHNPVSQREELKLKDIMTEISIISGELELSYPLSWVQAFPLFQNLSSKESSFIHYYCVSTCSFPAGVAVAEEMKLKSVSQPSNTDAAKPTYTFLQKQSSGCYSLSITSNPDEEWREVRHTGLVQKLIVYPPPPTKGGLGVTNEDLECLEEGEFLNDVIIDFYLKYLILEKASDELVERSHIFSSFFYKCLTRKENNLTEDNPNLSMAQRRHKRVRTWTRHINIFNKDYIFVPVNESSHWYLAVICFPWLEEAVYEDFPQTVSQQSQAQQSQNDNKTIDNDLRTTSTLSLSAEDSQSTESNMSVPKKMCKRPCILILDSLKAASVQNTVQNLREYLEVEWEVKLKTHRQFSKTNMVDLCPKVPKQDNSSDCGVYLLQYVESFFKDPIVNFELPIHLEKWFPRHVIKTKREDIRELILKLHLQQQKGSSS

[2] = molecular target: T3, Sentrin-specific protease 6 (Homo sapiens, UniProt Q9GZR1); format: functional;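 note: Luminescence-based dose-response confirmatory assay of SENP6 inhibition, following up an ultra-high-throughput screen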
T3 sequence (Q9GZR1 whole entry): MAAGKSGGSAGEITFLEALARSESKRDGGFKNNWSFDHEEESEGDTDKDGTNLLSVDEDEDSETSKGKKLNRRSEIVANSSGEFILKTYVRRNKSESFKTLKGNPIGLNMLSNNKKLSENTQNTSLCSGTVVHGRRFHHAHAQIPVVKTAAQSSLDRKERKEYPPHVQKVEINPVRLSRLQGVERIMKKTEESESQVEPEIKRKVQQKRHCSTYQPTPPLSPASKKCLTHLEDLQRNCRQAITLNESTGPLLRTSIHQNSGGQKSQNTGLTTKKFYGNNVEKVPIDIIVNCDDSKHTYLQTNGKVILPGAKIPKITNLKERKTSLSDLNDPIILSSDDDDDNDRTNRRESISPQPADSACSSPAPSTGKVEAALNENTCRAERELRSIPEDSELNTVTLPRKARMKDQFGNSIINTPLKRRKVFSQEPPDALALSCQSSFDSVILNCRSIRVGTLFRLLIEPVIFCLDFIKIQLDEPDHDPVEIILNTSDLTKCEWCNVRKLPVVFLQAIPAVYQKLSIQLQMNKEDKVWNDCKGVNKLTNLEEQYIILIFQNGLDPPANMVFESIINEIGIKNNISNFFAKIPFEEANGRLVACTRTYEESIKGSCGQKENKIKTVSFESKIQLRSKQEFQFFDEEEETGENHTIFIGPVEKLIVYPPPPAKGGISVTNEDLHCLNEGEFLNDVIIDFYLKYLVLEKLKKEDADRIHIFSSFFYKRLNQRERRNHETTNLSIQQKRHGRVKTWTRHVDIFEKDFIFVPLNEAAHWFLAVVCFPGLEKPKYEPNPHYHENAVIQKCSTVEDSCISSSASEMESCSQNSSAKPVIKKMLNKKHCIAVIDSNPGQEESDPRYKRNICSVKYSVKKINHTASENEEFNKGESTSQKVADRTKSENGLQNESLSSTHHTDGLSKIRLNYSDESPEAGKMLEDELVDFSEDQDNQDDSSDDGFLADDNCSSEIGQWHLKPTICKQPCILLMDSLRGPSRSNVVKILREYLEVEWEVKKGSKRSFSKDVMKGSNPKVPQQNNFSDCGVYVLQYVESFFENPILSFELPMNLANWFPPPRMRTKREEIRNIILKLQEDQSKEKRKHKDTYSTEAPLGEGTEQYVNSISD

[3] = molecular target: T4, Sentrin-specific protease 8 (Homo sapiens, UniProt Q96LD8); format: functional;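 note: luminescence read-out of SENP8 inhibition, dose-response confirmation following an ultra-high-throughput screen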
T4 sequence (Q96LD8 whole entry): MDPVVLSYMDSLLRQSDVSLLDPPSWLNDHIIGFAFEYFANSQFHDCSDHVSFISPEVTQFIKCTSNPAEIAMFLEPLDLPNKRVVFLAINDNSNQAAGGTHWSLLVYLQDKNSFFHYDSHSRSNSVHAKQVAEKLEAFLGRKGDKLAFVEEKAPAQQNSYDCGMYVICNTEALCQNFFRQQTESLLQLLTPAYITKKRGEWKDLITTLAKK

P388/ADR = experiment: cells; format: functional; conditions: Mus musculus
SN12K1 = experiment: cells; format: functional; conditions: Homo sapiens
P388 = experiment: cells; format: functional; conditions: Mus musculus
HEK293 [4] = experiment: NOD1 signaling inhibitors, primary screen, cell-based, luminescence, uHTS (AID 1578); format: functional; conditions: Homo sapiens
HEK293 [5] = experiment: cells; format: functional, cell-based; conditions: Homo sapiens
HEK293 [6] = experiment: cells; format: functional, cell-based; conditions: Homo sapiens; remark: listed apart in the source
HEK293 [7] = experiment: NOD2 signaling inhibitors in MDP-stimulated cells, cell-based, uHTS, luminescence (AID 2001); format: functional; conditions: Homo sapiens
[8] = inhibitors of intracellular T. cruzi replication, confirmation, NIH3T3 host cells, beta-gal luminescence (AID 2044); format: functional, cell-based;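 note: intracellular parasites grown in NIH/3T3 mouse fibroblasts as host cells; luminescent beta-galactosidase reporter signal from transgenic T. cruzi replicating inside host cells; inhibitors lower the luminescence signal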
[9] = growth suppression of PTEN-null colon cells, dose response, cell-based, HCT116 PTEN knockout (AID 1047); format: functional;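 note: HCT116 colon tumor cells with PTEN knocked out; cells exposed to compound for 60 hours before readout; potency for loss of cell viability measured by luminescence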
[10] = cytotoxicity toward NIH3T3 fibroblasts, dose response, counter-screen, cell-based, ATP luminescence, mouse fibroblasts (AID 2010); format: functional;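 note: cells exposed to compound for about 90 hours before reading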
[11] = growth suppression of beta-catenin-knockout colon cells, dose response, cell-based, HCT116, human colon tumor (AID 1045); format: functional;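 note: HCT116 colon tumor cells with beta catenin knocked out; cells exposed to compound for 60 hours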
HEK293 [12] = experiment: inhibitors of LMP1-driven NF-kB reporter, dose response, cell-based, HEK293, luciferase, cherry-pick (AID 588343); format: functional; conditions: Homo sapiens
[13] = molecular target: T5, DNA repair and recombination protein RAD54-like (Homo sapiens, UniProt Q92698); experiment: inhibitors of human RAD54 branch migration, confirmation, biochemical, fluorescence, cherry-picked samples, dose series (AID 651657); format: functional
T5 sequence (Q92698 whole entry): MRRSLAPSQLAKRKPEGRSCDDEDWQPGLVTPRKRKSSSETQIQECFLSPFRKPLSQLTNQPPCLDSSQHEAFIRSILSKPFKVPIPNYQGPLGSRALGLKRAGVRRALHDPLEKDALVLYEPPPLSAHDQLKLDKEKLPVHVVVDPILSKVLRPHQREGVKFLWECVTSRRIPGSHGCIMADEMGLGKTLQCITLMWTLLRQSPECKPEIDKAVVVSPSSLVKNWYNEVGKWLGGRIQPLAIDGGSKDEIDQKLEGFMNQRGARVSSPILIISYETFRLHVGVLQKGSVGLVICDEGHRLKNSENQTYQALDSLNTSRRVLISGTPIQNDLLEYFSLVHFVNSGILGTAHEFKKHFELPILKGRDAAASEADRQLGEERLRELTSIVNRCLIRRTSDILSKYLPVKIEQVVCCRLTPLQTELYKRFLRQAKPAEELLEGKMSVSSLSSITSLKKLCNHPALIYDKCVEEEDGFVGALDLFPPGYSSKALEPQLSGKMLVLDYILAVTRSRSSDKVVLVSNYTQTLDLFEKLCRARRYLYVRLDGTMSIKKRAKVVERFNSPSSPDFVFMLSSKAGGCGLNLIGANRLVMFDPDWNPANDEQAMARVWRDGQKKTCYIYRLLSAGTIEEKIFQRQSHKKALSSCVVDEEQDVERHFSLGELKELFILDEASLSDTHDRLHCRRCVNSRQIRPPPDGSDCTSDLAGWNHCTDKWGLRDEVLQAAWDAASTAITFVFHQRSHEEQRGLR

[14] = test system: Streptococcus sp. 'group A'; experiment: growth inhibition of control SK(-) GAS strain, dose response, counter-screen for streptokinase expression inhibitor project, luminescence, kanamycin, BacTiterGlo, confirmation (AID 1900); format: functional, organism-based
Streptokinase A = molecular target: T6, Streptokinase A (Streptococcus pyogenes serotype M1, UniProt P10520); experiment: S. pyogenes streptokinase expression inhibitors, potency, dose response, plasminogen activation absorbance, OD405 (AID 1914); format: functional, Streptococcus pyogenes M1 GAS;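 note: secreted streptokinase activity via plasminogen activation per viability signal from cell pellet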
T6 sequence (P10520 whole entry): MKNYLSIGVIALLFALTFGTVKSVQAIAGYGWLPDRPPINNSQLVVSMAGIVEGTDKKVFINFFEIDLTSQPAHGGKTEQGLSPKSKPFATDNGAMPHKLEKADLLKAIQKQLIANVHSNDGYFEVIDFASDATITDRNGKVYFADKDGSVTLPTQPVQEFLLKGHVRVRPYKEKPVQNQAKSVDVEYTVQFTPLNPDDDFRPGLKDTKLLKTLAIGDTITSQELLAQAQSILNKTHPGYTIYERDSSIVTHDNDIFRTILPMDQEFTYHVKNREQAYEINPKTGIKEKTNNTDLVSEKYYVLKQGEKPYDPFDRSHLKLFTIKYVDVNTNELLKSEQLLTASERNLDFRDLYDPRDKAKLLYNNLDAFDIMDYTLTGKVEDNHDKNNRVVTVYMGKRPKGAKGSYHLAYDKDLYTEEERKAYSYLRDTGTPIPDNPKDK

Streptococcus = experiment: Group A Streptococcus viability loss, dose response, counter-screen for streptokinase expression inhibitor project, luminescence, BacTiterGlo (AID 1915); format: functional, organism-based;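 note: potency for reduction of bacterial viability or growth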

| SMILES | IC50 (Caspase-3) | IC50 [1] | IC50 [2] | IC50 [3] | GI50 (P388/ADR) | GI50 (SN12K1) | GI50 (P388) | other results |
| --- | --- | --- | --- | --- | --- | --- | --- | --- |
| Cc1c(NC(=O)c2ccccc2N)cccc1C(=O)O | 38.1 µM (active) | 2.73 µM (active) | 9.43 µM (active) | 11.4 µM (active) | – | – | – | – |
| OC(CBr)C(O)C(O)C(O)CBr (stereo not drawn) | – | – | – | – | 5890 nM (inactive) | > 100 µM (inactive) | 3.53 µM (inactive) | – |
| CCCCS(=O)(=O)Nc1ccc(Nc2c3ccccc3nc3ccccc23)c(OC)c1 | – | – | – | – | 255 nM (active) | 1.26 µM (inactive) | < 0.01 µM (active) | – |
| CC(=O)Nc1nc(C)c(-c2csc(Nc3cccc([N+](=O)[O-])c3)n2)s1 | – | – | – | – | – | – | – | EC50 (HEK293 [4]): 9.4 µM (active); IC50 (HEK293 [5]): 11.1 µM (active); IC50 (HEK293 [6]): 17.1 µM (active); IC50 (HEK293 [7]): 8.61 µM (active); EC50 [8]: 0.995 µM (active); EC50 [9]: 18.2 µM (active); EC50 [10]: 14.1 µM (active); EC50 [11]: 24.8 µM (active); AC50 (HEK293 [12]): 2.16 µM (active) |
| Nc1nc(O)c2ncn(C3OC(CO)C(O)C3O)c2n1 (stereo not drawn) | – | – | – | – | 2330 nM (inactive) | 63.2 µM (inactive) | 9.73 µM (inactive) | – |
| CCOC(=O)c1cnc2ccc(C)cc2c1NCCN1CCOCC1 | – | – | – | – | – | – | – | AC50 [13]: 98.8 µM (active) |
| Cc1cc(O)c2c(c1)C(=O)c1c(c(O)cc(O)c1-c1c(O)cc(O)c3c1C(=O)c1cc(C)cc(O)c1C3=O)C2=O [SKYRIN] | – | – | – | – | 17900 nM (inactive) | 9.23 µM (inactive) | 8.95 µM (inactive) | – |
| CC[C@@]1(O)CC(OC2CC(N3CCOCC3)C(O)C(C)O2)c2c(O)c3c(c(O)c2[C@H]1O)C(=O)c1cccc(O)c1C3=O (stereo partly drawn) | – | – | – | – | 0.00975 nM (active) | – | 0.00366 µM (active) | – |
| O=C(c1cccs1)c1coc2ccc(O)cc12 | 13.7 µM (active) | 7.28 µM (active) | 10.6 µM (active) | > 100 µM (inactive) | – | – | – | – |
| Cc1c(/C=C/C(=O)c2ccccc2O)cnn1C | 15.3 µM (active) | 4.84 µM (active) | 14.2 µM (active) | 25.2 µM (active) | – | – | – | – |
| Cc1cccc(Nc2nc(-c3ccc(F)c(C)c3)cs2)n1 | 41.4 µM (active) | 5.75 µM (active) | 24 µM (active) | 41.5 µM (active) | – | – | – | EC50 [14]: 8.77 µM (active); EC50 (Streptokinase A): > 50 µM (not active); EC50 (Streptococcus): 26.7 µM (active) |
